Test results: PubChem BioAssay (NCI)
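Test compounds were applied to cells in 96-well plates for 48 hours at 5 doses. GI50 = concentration required for 50% inhibition of growth. TGI denotes the concentration required for complete inhibition of growth.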

How the values were obtained:
Test in all cases: NCI-60 cell line screen, 48 h
SF-268 CNS = tested on: SF-268 CNS
HCT-15 colon = tested on: HCT-15 colon
OVCAR-8 ovarian = tested on: OVCAR-8 ovarian
UACC-257 melanoma = tested on: UACC-257 melanoma
HCC-2998 colon = tested on: HCC-2998 colon
SK-OV-3 ovarian = tested on: SK-OV-3 ovarian
HT29 colon = tested on: HT29 colon
LOX IMVI melanoma = tested on: LOX IMVI melanoma
SR leukemia = tested on: SR leukemia
HS 578T breast = tested on: HS 578T breast
RPMI-8226 leukemia = tested on: RPMI-8226 leukemia
SK-MEL-5 melanoma = tested on: SK-MEL-5 melanoma
CCRF-CEM leukemia = tested on: CCRF-CEM leukemia
SF-539 CNS = tested on: SF-539 CNS
SK-MEL-2 melanoma = tested on: SK-MEL-2 melanoma
U251 CNS = tested on: U251 CNS
NCI-H460 lung = tested on: NCI-H460 lung
COLO 205 colon = tested on: COLO 205 colon
MCF7 breast = tested on: MCF7 breast
TK-10 renal = tested on: TK-10 renal
SN12C renal = tested on: SN12C renal
UO-31 renal = tested on: UO-31 renal
HCT-116 colon = tested on: HCT-116 colon
MALME-3M melanoma = tested on: MALME-3M melanoma
SK-MEL-28 melanoma = tested on: SK-MEL-28 melanoma
M14 melanoma = tested on: M14 melanoma
PC-3 prostate = tested on: PC-3 prostate
KM12 colon = tested on: KM12 colon
NCI-H226 lung = tested on: NCI-H226 lung
OVCAR-3 ovarian = tested on: OVCAR-3 ovarian
HOP-92 NSCLC = tested on: HOP-92 NSCLC
NCI-H522 lung = tested on: NCI-H522 lung
T-47D breast = tested on: T-47D breast
ACHN renal = tested on: ACHN renal
UACC-62 melanoma = tested on: UACC-62 melanoma
EKVX NSCLC = tested on: EKVX NSCLC
HOP-62 NSCLC = tested on: HOP-62 NSCLC
NCI/ADR-RES ovarian = tested on: NCI/ADR-RES ovarian
SF-295 CNS = tested on: SF-295 CNS
786-0 renal = tested on: 786-0 renal
A498 renal = tested on: A498 renal
SNB-19 CNS = tested on: SNB-19 CNS
BT-549 breast = tested on: BT-549 breast
DU-145 prostate = tested on: DU-145 prostate
NCI-H23 lung = tested on: NCI-H23 lung
OVCAR-4 ovarian = tested on: OVCAR-4 ovarian
K-562 leukemia = tested on: K-562 leukemia
MDA-MB-231 breast = tested on: MDA-MB-231 breast
OVCAR-5 ovarian = tested on: OVCAR-5 ovarian
SNB-75 CNS = tested on: SNB-75 CNS
SW-620 colon = tested on: SW-620 colon
IGROV1 ovarian = tested on: IGROV1 ovarian
MOLT-4 leukemia = tested on: MOLT-4 leukemia
RXF 393 renal = tested on: RXF 393 renal
A549 NSCLC = tested on: A549 NSCLC
HL-60(TB) leukemia = tested on: HL-60(TB) leukemia
CAKI-1 renal = tested on: CAKI-1 renal
MDA-MB-435 = tested on: MDA-MB-435

COc1cccc(-c2nn(-c3ccccc3)cc2-c2ccnc(NCCNS(=O)(=O)c3ccc(Cl)cc3)c2)c1
GI50 (SF-268 CNS): 5.49 µM
TGI (SF-268 CNS): > 100 µM
GI50 (HCT-15 colon): 3.86 µM
TGI (HCT-15 colon): > 100 µM
GI50 (OVCAR-8 ovarian): 7.54 µM
TGI (OVCAR-8 ovarian): > 100 µM
GI50 (UACC-257 melanoma): 7.03 µM
TGI (UACC-257 melanoma): 44.9 µM
GI50 (HCC-2998 colon): 4.26 µM
TGI (HCC-2998 colon): > 100 µM
GI50 (SK-OV-3 ovarian): 4.43 µM
TGI (SK-OV-3 ovarian): > 100 µM
GI50 (HT29 colon): 3.37 µM
TGI (HT29 colon): 11.3 µM
GI50 (LOX IMVI melanoma): 3.12 µM
TGI (LOX IMVI melanoma): > 100 µM
GI50 (SR leukemia): 2.25 µM
TGI (SR leukemia): 6.59 µM
GI50 (HS 578T breast): 5.73 µM
TGI (HS 578T breast): > 100 µM
GI50 (RPMI-8226 leukemia): 2.74 µM
TGI (RPMI-8226 leukemia): 13.3 µM
GI50 (SK-MEL-5 melanoma): 1.94 µM
TGI (SK-MEL-5 melanoma): 3.88 µM
GI50 (CCRF-CEM leukemia): 3.47 µM
TGI (CCRF-CEM leukemia): > 100 µM
GI50 (SF-539 CNS): 7.35 µM
TGI (SF-539 CNS): > 100 µM
GI50 (SK-MEL-2 melanoma): 3.84 µM
TGI (SK-MEL-2 melanoma): 26.9 µM
GI50 (U251 CNS): 5.89 µM
TGI (U251 CNS): > 100 µM
GI50 (NCI-H460 lung): 5.15 µM
TGI (NCI-H460 lung): > 100 µM
GI50 (COLO 205 colon): 3.33 µM
TGI (COLO 205 colon): 14.7 µM
GI50 (MCF7 breast): 2.98 µM
TGI (MCF7 breast): 18.4 µM
GI50 (TK-10 renal): 4.75 µM
TGI (TK-10 renal): > 100 µM
GI50 (SN12C renal): 5.45 µM
TGI (SN12C renal): > 100 µM
GI50 (UO-31 renal): 2.9 µM
TGI (UO-31 renal): > 100 µM
GI50 (HCT-116 colon): 4.63 µM
TGI (HCT-116 colon): > 100 µM
GI50 (MALME-3M melanoma): 3.8 µM
TGI (MALME-3M melanoma): > 100 µM
GI50 (SK-MEL-28 melanoma): 7.99 µM
TGI (SK-MEL-28 melanoma): > 100 µM
GI50 (M14 melanoma): 4.15 µM
TGI (M14 melanoma): > 100 µM
GI50 (PC-3 prostate): 2.44 µM
TGI (PC-3 prostate): > 100 µM
GI50 (KM12 colon): 3.72 µM
TGI (KM12 colon): > 100 µM
GI50 (NCI-H226 lung): 7.21 µM
TGI (NCI-H226 lung): > 100 µM
GI50 (OVCAR-3 ovarian): 4.32 µM
TGI (OVCAR-3 ovarian): > 100 µM
GI50 (HOP-92 NSCLC): 2.46 µM
TGI (HOP-92 NSCLC): 9.48 µM
GI50 (NCI-H522 lung): 2.47 µM
TGI (NCI-H522 lung): 9.76 µM
GI50 (T-47D breast): 2.52 µM
TGI (T-47D breast): 8.66 µM
GI50 (ACHN renal): 4.56 µM
TGI (ACHN renal): > 100 µM
GI50 (UACC-62 melanoma): 5.51 µM
TGI (UACC-62 melanoma): > 100 µM
GI50 (EKVX NSCLC): 3.84 µM
TGI (EKVX NSCLC): > 100 µM
GI50 (HOP-62 NSCLC): 13.5 µM
TGI (HOP-62 NSCLC): > 100 µM
GI50 (NCI/ADR-RES ovarian): 4.29 µM
TGI (NCI/ADR-RES ovarian): > 100 µM
GI50 (SF-295 CNS): 3.89 µM
TGI (SF-295 CNS): 57.5 µM
GI50 (786-0 renal): 6.61 µM
TGI (786-0 renal): > 100 µM
GI50 (A498 renal): 3.4 µM
TGI (A498 renal): > 100 µM
GI50 (SNB-19 CNS): 7.44 µM
TGI (SNB-19 CNS): > 100 µM
GI50 (BT-549 breast): 4.07 µM
TGI (BT-549 breast): > 100 µM
GI50 (DU-145 prostate): 7.55 µM
TGI (DU-145 prostate): > 100 µM
GI50 (NCI-H23 lung): 4.32 µM
TGI (NCI-H23 lung): > 100 µM
GI50 (OVCAR-4 ovarian): 4.15 µM
TGI (OVCAR-4 ovarian): > 100 µM
GI50 (K-562 leukemia): 3.73 µM
TGI (K-562 leukemia): > 100 µM
GI50 (MDA-MB-231 breast): 3.55 µM
TGI (MDA-MB-231 breast): > 100 µM
GI50 (OVCAR-5 ovarian): > 100 µM
TGI (OVCAR-5 ovarian): > 100 µM
GI50 (SNB-75 CNS): 7.92 µM
TGI (SNB-75 CNS): > 100 µM
GI50 (SW-620 colon): 5.44 µM
TGI (SW-620 colon): > 100 µM
GI50 (IGROV1 ovarian): 6.63 µM
TGI (IGROV1 ovarian): > 100 µM
GI50 (MOLT-4 leukemia): 2.56 µM
TGI (MOLT-4 leukemia): 9 µM
GI50 (RXF 393 renal): 5.03 µM
TGI (RXF 393 renal): > 100 µM
GI50 (A549 NSCLC): 5.86 µM
TGI (A549 NSCLC): > 100 µM
GI50 (HL-60(TB) leukemia): 2.56 µM
TGI (HL-60(TB) leukemia): 17.9 µM
GI50 (CAKI-1 renal): 5.61 µM
TGI (CAKI-1 renal): > 100 µM
GI50 (MDA-MB-435): 3.81 µM
TGI (MDA-MB-435): > 100 µM
